In patent US5882881A, “Inhibition of cyst formation by cytoskeletal specific drugs” (priority 1998, dated 1999):

Experiments:
[1] = test system: homozygous cpk mice; assay: Survival of cpk mice on weekly intraperitoneal treatment (Example 8, FIG. 2); type: in vivo, mouse
From the text: Untreated and methotrexate (MTX) treated polycystic cpk mice all died before 30 days of age. Most polycystic cpk mice treated with weekly taxol survive more than 60 days. The dotted line starting at day 120 indicates the number and age of apparently healthy taxol treated polycystic mice that were sacrificed for histology studies. Pairs of mice were sacrificed at 120 days, 182 days and 210 days of age.
In order to determine whether taxol prevents cyst formation by inhibiting cell division, another drug known to have anti-mitotic activity, methotrexate, was tested for its ability to treat homozygous cpk mice. Six cpk mice were injected intraperitoneally with 15 μl of methotrexate solution (1.1 mg/ml in water) 10-12 days after birth and once every week thereafter. The methotrexate-injected mice survived until between 18 and 27 days after birth, with only one mouse living longer than 28 days. […] Therefore, the anti-mitotic activity of taxol cannot explain its ability to treat CPK mice having a polycystic-type kidney disease. Rather, the results from in vitro tests indicate that agents which interfere with the function of the cytoskeleton, or which inhibit the delivery of membrane proteins are useful in treating cystic diseases such as Polycystic Kidney Disease.
Eleven homozygous cpk mice, raised and identified as in Example 6 were treated with 15 μl of 10 mg/ml taxol in DMSO through intraperitoneal injection beginning 11-14 days after birth. Following the first treatment, the mice were administered with the same treatment once every week thereafter. As controls, 6 cpk mice were treated with 15 μl intraperitoneal injections of DMSO beginning 10-12 days after birth and then once every week thereafter.

[2] = humans; approximately; cited from earlier work
[3] = test system: human ADPKD cells; assay: In vitro cyst formation in human ADPKD cells; type: cell-based; settings: human ADPKD cells; cytosine arabinoside 20 μg/ml, α-amanitin 100 ng/ml, cycloheximide 40 μg/ml, amiloride 1 mM, ouabain 0.5 mM, taxol 25 μM, colchicine 10 μM, vinblastine 1 μM, cytochalasins 10 μM
From the text: I have substituted human ADPKD cells for the murine CPK cells of Example 1 and produced similar results. Other cyst-forming cells are believed to also form suitable results with only minor deviations from the conditions set forth in Example 1.
Cell suspensions were separated from debris by sedimentation at unit gravity and decantation. After washing once with DMEM/F12 medium, cells were suspended in DMEM/F12 supplemented with 1.2 gm/l sodium bicarbonate, 1× insulin, transferrin and selenium (Sigma # 11184), 1% lipids supplement (Sigma # L4646) and 1× antibiotic/antimycotic (Sigma # A7292) at a density of 5×10^4 cells per ml. Two mls of the cell suspension were aliquoted into each well of a six-well plastic cell culture plates that had been precoated with 2 mls of 1% low melting point agarose in DMEM/F12 and incubated at 37° C. in a humidified atmosphere of 5% CO2 in air.
I used the in vitro cyst formation system of the present invention to analyze compounds that affect the process of cyst formation. To determine the therapeutic effectiveness of an agent, cyst-forming cells are suspended in a medium to which the agent has been added. These cells are then cultured on a solid phase without formation of a layer of cells on the surface, such as in the assay system described in Example 1. The extent to which the cells actually form cysts can be detected and compared to the extent of cyst formation expected if no agent were added. If the amount of cyst formation is lower than expected, then the agent is a good candidate for therapeutic intervention of cystic diseases.

[4] = test system: normal phenotype, heterozygous mice; assay: Body weight of normal phenotype heterozygous C57BL/6 mice (FIG. 3A); type: in vivo, mouse; settings: versus methotrexate or non-treated
From the text: […]. The body weights of untreated, taxol treated and methotrexate treated C57BL/6j mice between day 10 and day 45 after birth is shown in A. The body weights of untreated, taxol treated and methotrexate treated cpk mice are shown in B. Results in each group are the mean of 6 animals. Untreated and methotrexate treated cpk mice died between days 26 and 28. […].
In a related procedure I treated both normal C57BL/6 and cpk mice at 11-14 days of age with either taxol or methotrexate as described above. Six untreated mice served as controls in this experiment.

CC(=O)O[C@H]1C(=O)[C@@]2(C)[C@H]([C@H](OC(=O)c3ccccc3)[C@]3(O)C[C@H](OC(=O)[C@H](O)[C@@H](NC(=O)c4ccccc4)c4ccccc4)C(C)=C1C3(C)C)[C@]1(OC(C)=O)CO[C@@H]1C[C@@H]2O [Taxol]
survival (in words) ([1]; weekly i.p., versus untreated or DMSO): generally experienced substantially longer life spans | condition of treated polycystic mice (in words) ([1]; weekly taxol, pairs sacrificed at 120, 182 and 210 days of age): remained active until sacrifice and attained adult size and weight, despite having palpably enlarged kidneys | in vivo half-life [2]: 6 to 12 h | cyst formation (in words) [3]: reversibly inhibited in vitro cyst formation in both models | weight gain (in words) [4]: gained less weight
